14 molecules from article PMC5908301, “Small molecule CXCR4 antagonists block the HIV-1 Nef/CXCR4 axis and selectively initiate the apoptotic program in breast cancer cells” (Oncotarget, 2018) can be followed below.

The test system of assay [1] is MDA-MB-231 cells. Kind of assay: Mitochondrial depolarization of MDA-MB-231 breast cancer cells (JC-1 stain). The settings on record: for EC50 / inhibition at 100 µM: Homo sapiens; for depolarization of MDA-MB-231 cells in dose response (qualitative): Figure 10; for inhibition at 100 µM: MDA-MB-231, read-out: inhibition (effect) reached in MDA-MB-231 depolarization assay; for depolarization of MDA-MB-231 cells (qualitative): at concentrations below 10 μM; for depolarization/apoptosis of MDA-MB-231 cells (qualitative): up to 100 μM.

In assay [2] the target is T1, CXCR4 (Homo sapiens, UniProt P61073).
T1 construct: CXCR4-expressing CEM cells; endogenous in cells; host or cells: CEM cells
The assay is described as follows: Inhibition of SDF-1α-mediated calcium flux in CXCR4-expressing CEM cells. It counts as cell-based. The settings on record: for IC50: read-out: CEM SDF-1 Ca2+ Flux IC50. As for the experimental part:
CXCR4- expressing CEM cells were loaded with Fluo-4, washed, and pre- incubated with the indicated concentrations of test compounds for 10 min.

In assay [3] the test system is HIV-1IIIB. Kind of assay: MAGI antiviral (entry) assay with HIV-1IIIB in HeLa-derived MAGI-CCR5/CXCR4 cells. It is filed as cell-based. The protocol:
MAGI-CCR5/CXCR4 cells are derived from HeLa-CD4-LTR-β-gal cells. The cells have been engineered to express high levels of CD4 and CXCR4 and contain one copy of the HIV-1 LTR promoter driving expression of the β-galactosidase gene upon HIV-1 Tat transactivation. On the day preceding the assay, the cells are plated at 1 × 10^4 well and incubated at 37°C overnight. Total cell and viability quantification is performed using a hemacytometer and trypan blue exclusion.
The virus used for these tests is the CXCR4-tropic strain HIV-1IIIB. […] For each assay, a pre-titered aliquot of virus is removed from the freezer (−80°C) and allowed to thaw slowly to room temperature in a biological safety cabinet.
Compounds are evaluated at one or two concentrations (e.g., for initial screening) or in dose-response at six concentrations (triplicate wells/concentration). On the day of assay setup, compound dilutions are prepared at two-times (2×) the final required concentrations. Media used for plating the cells the day before assay setup is aspirated from the plates and replaced with 50 μL of the 2× compounds, followed by the addition of 50 μL of virus, which dilutes the compounds to the final 1X concentrations. Cell control wells (cells only) and virus control wells (cells plus virus) are included on each assay plate. Identical uninfected assay plates (virus replaced with media) are prepared for parallel cytotoxicity testing.
Once HIV-1 has attached and entered the MAGI-CXCR4 cells, HIV-1 Tat transactivates the LTR dependent β-galactosidase enzyme to express higher than normal levels of β-galactosidase. […] At 48 hours or 6 days post infection, plates are aspirated, and PBS is added to each well. Gal-screen reagent (Tropix, Bedford, MA) is then added per the manufacturer's instructions for chemiluminescent detection of β-galactosidase activity and incubated at room temperature for 90 minutes. The resulting chemiluminescence signal is then read using a Microbeta Trilux luminescence reader (PerkinElmer/Wallac).
Percent inhibition of virus replication and percent cell viability at each concentration are calculated using an in-house computer program. […] Raw data for both antiviral activity and cytotoxicity with analyzed/tabulated data are provided in a printout summarizing the individual compound activity. For dose-response testing, a graphical representation of the data is also provided.

In assay [4] the test system is Jurkat T-lymphocyte cells. The assay is described as follows: Inhibition of Nef M1 peptide-induced mitochondrial depolarization/apoptosis in Jurkat cells (JC-1). The settings on record: for EC50: JC-1; for protection against M1 (control drugs): data not shown. It is filed as cell-based, human.
Assay [5] has as its system MDA-MB-231 cells. The settings on record: Figure 8B, TUNEL. As for the experimental part:
(D) MDA-MB-231 cells mock treated were analyzed via TUNEL.
(§1) Cells were grown to 80% confluence in 35 mm plates, either untreated or treated with 10 ng/ml of Nef Motif1 or CXCR4 antagonists for 24 hours. The cells were washed twice in ice-cold PBS and then fixed in 4% paraformaldehyde 1 hour. TUNEL assay for apoptosis and microscopy were done as described previously.

The test system of assay [6] is Jurkat cells. Kind of assay: M1 peptide-induced apoptosis in Jurkat cultures (TUNEL). It is filed as cell-based, human. As for the experimental part:
(A) Fluorescent microscopy images of Jurkat cultures stained via TUNEL. (B) TUNEL stained cells were counted and quantified. Fluorescent microscopy images were arranged with Adobe photoshop 6.0 software and analyzed by Image-Pro 6.3 software (Media Cybernetics, Silver Spring, MD).
as §1

Where [7] appears, read: MDA-MB-231, 24 h, read-out: MDA-MB-231 Depolarization EC50.
[8] abbreviates: Human immunodeficiency virus 1, MAGI-CCR5/CXCR4 cells, β-galactosidase reporter, read-out: HeLa HIV-1IIIB MAGI IC50.
Where [9] appears, read: Homo sapiens, Jurkat, 24 h, concentration inhibiting M1-induced mitochondrial depolarization by 50%, 10 ng/mL M1, 24 h, read-out: Jurkat M1 Inhibition EC50.
Where [10] appears, read: Human immunodeficiency virus 1, MAGI, read-out: HIV-1IIIB MAGI IC50.
The mark [11] stands for this setting: Homo sapiens, Jurkat, read-out: EC50 against M1-mediated apoptosis in Jurkat cells.
Where [12] appears, read: MDA-MB-231, read-out: EC50 depolarization/apoptosis of MDA-MB-231 cells.

Entries after “also recorded” stand apart in the source; their conditions may differ. Read-outs that look alike come from different tables or passages of the source.

T1 sequence (P61073 whole entry): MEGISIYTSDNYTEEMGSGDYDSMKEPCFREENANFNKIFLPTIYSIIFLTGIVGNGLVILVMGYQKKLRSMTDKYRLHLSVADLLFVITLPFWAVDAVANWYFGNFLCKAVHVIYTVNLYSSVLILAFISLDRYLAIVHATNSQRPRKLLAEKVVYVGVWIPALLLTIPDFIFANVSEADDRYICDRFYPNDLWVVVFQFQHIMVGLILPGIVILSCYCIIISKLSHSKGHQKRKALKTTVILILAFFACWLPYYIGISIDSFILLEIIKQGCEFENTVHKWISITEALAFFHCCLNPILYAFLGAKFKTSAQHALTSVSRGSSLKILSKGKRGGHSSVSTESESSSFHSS

Regarding `CN(C[C@@H]1CN(Cc2ccc(C(F)(F)F)cc2)CCN1)[C@H]1CCCc2cccnc21` [Compound 7], the EC50 in assay [1] (setting [7]) was 85000 nM; in assay [4] (setting [9]), 12700 nM. The IC50 in assay [2] was over 50000 nM; in assay [3] (setting [8]) it was 8010 nM.
With `Cc1cn([C@H]2C[C@H](N=[N+]=[N-])[C@@H](CO)O2)c(=O)[nH]c1=O` [AZT, reference compound], the “depolarization of MDA-MB-231 cells in dose response (qualitative)” value in assay [1] is reported as “No depolarization”. Moreover, the “protection against M1 (control drugs)” value in assay [4] is on record as “did not confer protection”.
With `NCCCN(C[C@@H]1CN(Cc2ccccc2)CCN1)[C@H]1CCCc2cccnc21` [Compound 5], the results for the EC50 in assay [1] (setting [7]) and in assay [4] (setting [9]) were 0.39 nM and 10 nM, respectively. Also, the IC50 was 190 nM in assay [2] and 30 nM in assay [3] (setting [8]).
`c1cc(CN2CCCNCCNCCCNCC2)ccc1CN1CCCNCCNCCCNCC1` [AMD3100, reference compound]: the “Depolarization (%)” value in assay [1] (Figure 8A, JC-1 staining) was determined as 91%. The “depolarization of MDA-MB-231 cells in dose response (qualitative)” value in assay [1] is “significant depolarization”. The EC50 is 123 nM in assay [1] (setting [7]) and 473 nM in assay [4] (setting [11]). The results for the IC50 in assay [3] (setting [10]) and in assay [3] (setting [8]) were 2 to 5 nM and 2 nM, respectively. For the same molecule, the “Apoptosis (%)” value in assay [5] amounted to 89.5%.
Consider `NCCCCN(C[C@H]1Cc2ccccc2CN1Cc1ccncn1)[C@H]1CCCc2cccnc21` [Compound 4], for which the EC50 is over 100000 nM in assay [1] (setting [7]) and 52 nM in assay [4] (setting [11]). Further, the inhibition at 100 µM in assay [1] is about 20%. Also, in assay [1], the “depolarization of MDA-MB-231 cells (qualitative)” value is listed as “failed to depolarize”. The entries for the “depolarization/apoptosis of MDA-MB-231 cells (qualitative)” value in assay [1] and in assay [1] (listed as compound 4) were “no apoptosis; also recorded: failed to depolarize” and “no effect”, respectively. Also, the half-maximal inhibitory concentration (IC50) in assay [2] is 7700 nM; in assay [3] (setting [10]), under 100 nM; in assay [3] (setting [8]), 3 nM.
For `c1cnc(NCc2ccc(CNc3ncccn3)cc2)nc1` [MSX-122, reference compound], the EC50 was 81 nM in assay [1] (setting [7]), under 100 nM in assay [1] (setting [12]) and 12000 nM in assay [4] (setting [9]). Moreover, the “CXCR4 functional response in calcium flux assay (qualitative)” value in assay [2] was “no measurable CXCR4 functional response”. Further, the IC50 in assay [2] and in assay [3] (setting [8]) was over 10000 nM each time.
Turning to `c1ccc(CNCCCCN(C[C@H]2Cc3ccccc3CN2)[C@H]2CCCc3cccnc32)nc1` [Compound 2], the “Apoptosis (%)” value in assay [5] was determined as 93%.
Take `CC1(C)CN2C(CSC(=NC3CCCCC3)NC3CCCCC3)=CSC2=N1` [IT1t, reference compound]: the EC50 in assay [1] (setting [7]) was 6.25 nM; in assay [4] (setting [11]), under 100 nM; in assay [4] (concentration inhibiting M1-induced mitochondrial depolarization by 50%, 10 ng/mL M1, 24 h, listed as It1t, read-out: Jurkat M1 Inhibition EC50), 0.7 nM; in assay [4] (concentration inhibiting M1-induced mitochondrial depolarization by 50%, 10 ng/mL M1, 24 h, read-out: Jurkat M1 Inhibition EC50) it was at most 1000 nM. In addition, the half-inhibitory concentration (IC50) in assay [3] (setting [8]) turned out to be 10 nM. For the same molecule, the “protection from M1-mediated apoptosis” value in assay [6] (prophylactic 50 nM, then M1) was “complete protection”.
As to `NCCCCN(C[C@H]1Cc2ccccc2CN1Cc1cnccn1)[C@H]1CCCc2cccnc21` [Compound 3], the results for the EC50 in assay [1] (setting [7]) and in assay [4] (setting [9]) were 15 nM and 3.5 nM, respectively. Further, the inhibition at 100 µM in assay [1] was at most 65%. Also, the half-maximal inhibitory concentration (IC50) in assay [2] came out at 110 nM; in assay [3] (setting [8]), 790 nM.
For `NC(=O)NCCCCN(C[C@H]1Cc2ccccc2CN1)[C@H]1CCCc2cccnc21` [Compound 1], the EC50 in assay [1] (setting [7]) was 0.8 nM; in assay [4] (setting [9]), 0.3 nM. Besides, the IC50 in assay [2] worked out at 4 nM; in assay [3] (Human immunodeficiency virus 1, MAGI, read-out: HeLa HIV-1IIIB MAGI IC50), 210 nM.
Consider “TNAACAWLEAQ [Compound M1, pro-apoptotic peptide, residues 50–60 of HIV-1 Nef]”, for which, in assay [6] (10 ng/mL, 24 h, no antagonist), the “apoptosis induction in Jurkat cultures by peptide” value is “displayed apoptosis”.
As to `CN(C[C@@H]1CN(Cc2ccccc2)CCN1)[C@H]1CCCc2cccnc21` [Compound 6], the EC50 is 10000 nM in assay [1] (setting [7]) and 53 nM in assay [4] (setting [11]). For the same molecule, the inhibition at 100 µM in assay [1] is at most 65%. In assay [1], the “depolarization of MDA-MB-231 cells (qualitative)” value is recorded as “failed to depolarize”. Further, the half-inhibitory concentration (IC50) in assay [2] is 3300 nM; in assay [3] (setting [10]), under 100 nM; in assay [3] (setting [8]), 850 nM.
With `c1ccc(Cc2cn[nH]c2C2CCN(Cc3ccncc3)CC2)cc1` [Compound 8], the EC50 is 28 nM in assay [1] (setting [7]), under 100 nM in assay [1] (setting [12]) and 1100 nM in assay [4] (setting [9]). In assay [2], the “CXCR4 functional response in calcium flux assay (qualitative)” value was “no measurable CXCR4 functional response”. Further, the IC50 in assay [3] (setting [8]) came to 780 nM.
In the case of Maraviroc [reference compound], the “depolarization of MDA-MB-231 cells in dose response (qualitative)” value in assay [1] is “No depolarization”. The “protection against M1 (control drugs)” value in assay [4] is recorded as “did not confer protection”.

The term IC50 denotes the concentration needed to halve the response being measured. In general, inhibition refers to the share of the control response that was lost under treatment.
